These results are taken from patent US7388007B2, “Gamma-lactams as beta-secretase inhibitors” (Bristol-Myers Squibb Company, priority 2004, dated 2008).

In the assay the target is T1, BACE1 enzyme (Homo sapiens, UniProt P56817).
T1 construct: The HEK293-9B.A1 cell line, which overexpresses the BACE1 enzyme, was derived from HEK293 cells; endogenous in cells; washed 48,000 x g membrane pellet / cell homogenate
Description: Radioligand displacement assay with a radiolabeled BACE inhibitor on HEK293-9B.A1 cell homogenate. It is filed as binding. Conditions: displacement of 1 nM tritiated radioligand, HEK293-9B.A1 homogenate, pH 5.0, 1.5 hr at 25° C.; read-out: Activity Rating (based on IC50 values). From the text: There are a number of methods by which inhibitors of the BACE enzyme can be identified experimentally. The enzyme can be obtained from membrane samples from natural tissues or cultured cells or can be expressed recombinantly in a host cell by well known methods of molecular biology. The whole enzyme or a portion thereof can be expressed, for example, in bacterial, insect or mammalian cells to obtain a catalytically active enzyme species. The enzymatic activity and/or ligand binding capability of the enzyme can be assessed within these membrane samples, or the enzyme can be purified to varying extents. As an illustrative example, the nucleic acid sequence encoding the pro and catalytic domains of human BACE can be appended on the 5′ end with an untranslated and signal sequence from the gene for acetylcholinesterase, and on the 3′ end with a sequence encoding a poly-histidine tag. This cDNA can then be expressed in Drosophila melanogaster S2 cells in which the signal and pro sequences of the transcribed/translated protein are removed by cellular proteases and the catalytic domain, appended by a C-terminal poly-histidine tag, is secreted out into the cellular medium. The enzyme can then be purified from the culture medium by nickel affinity chromatography by methods well known to those trained in the art [Mallender, W. et al., (2001) “Characterization of recombinant, soluble beta-secretase from an insect cell expression system.” Mol. Pharmacol. 59: 619-626]. Similar strategies for expressing and purifying various forms of BACE in bacterial, mammalian and other cell types would be known to one skilled in the art. A preferred method for determining the potency of a test compound in binding to the BACE enzyme is by moitoring the displacement of a suitable radioligand.
Radioligand displacement assays with a radiolabeled BACE inhibitor (WO 2004 013098, compound 3, where the methoxy group is substituted for C(^3H)3) were carried out using standard methods (Keen, M. (1999) in Receptor Binding Techniques (Walker, J. M. ed) p. 106 Humana Press, Totowa, N.J.). The HEK293-9B.A1 cell line, which overexpresses the BACE1 enzyme, was derived from HEK293 cells (Simmons, N. L. (1990) A cultured human renal epithelioid cell line responsive to vasoactive intestinal peptide. Exp. Physiol. 75:309-19.) by RAGE™ (Harrington, J. J. et al. (2001) Creation of genome-wide protein expression libraries using random activation of gene expression. Nat. Biotechnol. 19:440-5; U.S. Pat. Nos. 6,410,266 and 6,361,972). T225 flask cultures of HEK293-9B.A1 were grown to 80% confluency in DMEM supplemented with 2 mM L-glutamine, 10 μg/ml penecillin, 10 μg/ml streptomycin, 3 μg/ml puromycin, 100 nM methotrexate, and 10% fetal bovine serum (Invitrogen, Carlsbad, Calif.), harvested, and resuspended at 2×10^8 cells per 10 ml of lysis buffer consisting of 50 mM HEPES pH 7.0 containing a protease inhibitor cocktail of AEBSF 104 μM, aprotinin 80 nM, leupeptin 2 μM, bestatin 4 μM, pepstatin A 1.5 μM, and E-64 1.4 μM (0.1% of protease inhibitor cocktail P8340, Sigma-Aldrich, St. Louis, Mo.) at 4° C. The resuspended cells were homogenized using a Polytron (Brinkman, Westbury, N.Y.) at setting 6 for 10 sec., then centrifuged at 48,000×g for 10 min. The resulting pellet was washed by repeating the resuspension, homogenization and centrifugation steps. […]
For orientation: In a radioligand displacement assay an active substance lowers the binding of a labelled ligand.

T1 sequence (P56817 46-501): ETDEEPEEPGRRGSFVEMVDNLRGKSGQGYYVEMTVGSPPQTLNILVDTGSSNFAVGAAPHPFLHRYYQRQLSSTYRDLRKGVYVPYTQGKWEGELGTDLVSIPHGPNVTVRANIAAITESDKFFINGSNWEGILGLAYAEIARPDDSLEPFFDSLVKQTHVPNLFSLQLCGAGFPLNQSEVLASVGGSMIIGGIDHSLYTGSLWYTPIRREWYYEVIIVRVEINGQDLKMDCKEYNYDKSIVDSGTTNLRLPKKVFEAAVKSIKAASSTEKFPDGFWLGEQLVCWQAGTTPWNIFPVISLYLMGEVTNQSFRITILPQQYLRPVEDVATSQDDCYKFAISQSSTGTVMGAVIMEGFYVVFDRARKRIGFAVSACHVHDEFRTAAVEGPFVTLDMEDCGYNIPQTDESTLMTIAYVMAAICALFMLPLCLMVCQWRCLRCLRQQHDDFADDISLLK

Take `CCCOC1CN[C@@H]([C@@H](O)C(Cc2cc(F)cc(F)c2)NC(=O)[C@H](C)N2CC[C@H](CC(C)C)C2=O)C1` (some centres unmarked) [Example 7]: the IC50 (in general, the point on the concentration scale where inhibition reaches its midpoint) fell in the range of 100 to 1000 nM.

As for `CCCS(=O)(=O)[C@H]1CN[C@@H]([C@@H](O)[C@H](Cc2ccccc2)NC(=O)[C@H](CCc2ccccc2)N2CC[C@](NC(C)=O)([C@H](C)CC)C2=O)C1` [Example 22, (S)-2-((S)-3-acetamido-3-((R)-sec-butyl)-2-oxopyrrolidin-1-yl)-N-((1R,2S)-1-hydroxy-3-phenyl-1-((2R,4R)-4-(propylsulfonyl)pyrrolidin-2-yl)propan-2-yl)-4-phenylbutanamide], the half-maximal inhibitory concentration (IC50) was under 100 nM.

Regarding `CCC(C)[C@@]1(NC(C)=O)CCN([C@@H](CCc2ccccc2)C(=O)N[C@@H](Cc2cc(F)cc(F)c2)[C@H](O)[C@H]2CCCCN2)C1=O` (stereo in doubt) [Example 8, (S)-2-((S)-3-acetamido-3-((R)-sec-butyl)-2-oxopyrrolidin-1-yl)-N-((1R,2S)-3-(3,5-difluorophenyl)-1-hydroxy-1-((R)-piperidin-2-yl)propan-2-yl)-4-phenylbutanamide], the IC50 is under 100 nM. Then `CC[C@@H](C)[C@@]1(NC(C)=O)CCN([C@@H](CCc2ccccc2)C(=O)N[C@@H](Cc2cc(F)cc(F)c2)[C@H](O)[C@H]2C[C@H](O)CN2)C1=O` [Example 15, (S)-2-((S)-3-acetamido-3-((R)-sec-butyl)-2-oxopyrrolidin-1-yl)-N-((1R,2S)-3-(3,5-difluorophenyl)-1-hydroxy-1-((2R,4S)-4-hydroxypyrrolidin-2-yl)propan-2-yl)-4-phenylbutanamide], with under 100 nM; and `CCCO[C@H]1CN[C@@H]([C@@H](O)[C@H](Cc2cc(F)cc(F)c2)NC(=O)[C@H](CCc2ccccc2)N2CC[C@](NC(C)=O)([C@@H](C)CC)C2=O)C1` (stereo in doubt) [Example 2, (S)-2-((R)-3-acetamido-3-secbutyl-2-oxopyrrolidin-1-yl)-N-((1R,2S)-3-(3,5-difluorophenyl)-1-hydroxy-1-((2R,4R)-4-propoxypyrrolidin-2-yl)propan-2-yl)-4-phenylbutanamide], with under 100 nM.
